Source: article PMC7525662, “Preclinical dosimetry models and the prediction of clinical doses of novel positron emission tomography radiotracers” (Scientific Reports, 2020)
Marks after values point to notes of the source that are not given here.

Key:
Parameters in all cases: species or system Sprague–Dawley rats
Settings in all cases: rat, in vivo
[1] = OLINDA/EXM predicted clinical doses: adult female phantom, non-normalised τ, iterative
Description: (§1) PET studies were reconstructed using filtered-back projection (FBP) and Mediso’s iterative Tera-Tomo 3D reconstruction algorithm with the following settings: 4 iterations, 6 subsets, full detector model, normal regularization, spike filter on, voxel size 0.4 mm and 400‒600 keV energy window. PET data were corrected for randoms, scatter and attenuation. Time-activity curves for each source organ, whole-body and remainder of the body were plotted. […] Residence times (τ) were determined for each radiotracer in source organs, whole-body and remaining (any activity assigned to the whole-body but not assigned to a source organ). Each preclinical source organ’s τ was determined by calculating the area under its respective time-activity curve (activity normalised to the percentage maximum injected dose as a function of time) using the trapezoid method. […] From each individual animal, eight dosimetry models were constructed from all possible combinations of image reconstruction method (FBP or iterative), τ (non-normalised or normalised to human organ masses), and sex of phantom (male or female). Supplementary table 10. Predicted clinical absorbed organ doses and whole-body effective doses of PET radiotracers using non-normalised (preclinical) adult female source organ residence times from iterative reconstructions.

[2] = OLINDA/EXM predicted clinical doses: adult male phantom, normalised τ, iterative
Description: as §1, with “table 11.” for “table 10.”, “using normalised” for “using non-normalised (preclinical)”, “adult male” for “adult female”

[3] = OLINDA/EXM predicted clinical doses: adult female phantom, normalised τ, iterative
Description: as §1, with “12.” for “10.”, “normalised” for “non-normalised (preclinical)”

[4] = Comparison of predicted doses across the eight dosimetry models and radiotracers
Description: Time-activity curves for each source organ, whole-body and remainder of the body were plotted. […] Residence times (τ) were determined for each radiotracer in source organs, whole-body and remaining (any activity assigned to the whole-body but not assigned to a source organ). Each preclinical source organ’s τ was determined by calculating the area under its respective time-activity curve (activity normalised to the percentage maximum injected dose as a function of time) using the trapezoid method. […] From each individual animal, eight dosimetry models were constructed from all possible combinations of image reconstruction method (FBP or iterative), τ (non-normalised or normalised to human organ masses), and sex of phantom (male or female). All graphs and statistical analyses were generated and performed in GraphPad Prism 5.01 (GraphPad Software Inc., California, USA). One-way ANOVA followed by a Dunnett’s multiple comparison post-hoc test with [^18F]FDG as the control was used to determine which novel radiotracers’ biodistribution and dosimetry differed from [^18F]FDG in the same organs. All statistical tests used α = 0.05 as the measure for statistical significance. Bland–Altman plots were calculated as previously described[33],[34].

Effective Dose [1]: 8.22E-02 mSv/MBq
Estimated Absorbed Dose of Organ, Adrenals [1]: 9.77E-03 mGy/MBq
Estimated Absorbed Dose of Organ, Brain [1]: 1.87E-03 mGy/MBq
Estimated Absorbed Dose of Organ, Breasts [1]: 5.49E-03 mGy/MBq
Estimated Absorbed Dose of Organ, Gallbladder Wall [1]: 1.07E-02 mGy/MBq
Estimated Absorbed Dose of Organ, Heart Wall [1]: 7.79E-03 mGy/MBq
Estimated Absorbed Dose of Organ, Kidneys [1]: 4.85E-02§ mGy/MBq
Estimated Absorbed Dose of Organ, LLI Wall [1]: 1.68E-01 ‡ mGy/MBq
Estimated Absorbed Dose of Organ, Liver [1]: 1.06E-02 mGy/MBq
Estimated Absorbed Dose of Organ, Lungs [1]: 5.19E-03 mGy/MBq
Estimated Absorbed Dose of Organ, Muscle [1]: 1.30E-02 mGy/MBq
Estimated Absorbed Dose of Organ, Osteogenic Cells [1]: 1.30E-02 mGy/MBq
Estimated Absorbed Dose of Organ, Ovaries [1]: 4.12E-02 mGy/MBq
Estimated Absorbed Dose of Organ, Pancreas [1]: 9.72E-03 mGy/MBq
Estimated Absorbed Dose of Organ, Red Marrow [1]: 1.18E-02 mGy/MBq
Estimated Absorbed Dose of Organ, Skin [1]: 7.18E-03 mGy/MBq
Estimated Absorbed Dose of Organ, Small Intestine [1]: 2.22E-02 mGy/MBq
Estimated Absorbed Dose of Organ, Spleen [1]: 9.42E-03 mGy/MBq
Estimated Absorbed Dose of Organ, Stomach Wall [1]: 9.44E-03 mGy/MBq
Estimated Absorbed Dose of Organ, Thymus [1]: 6.68E-03 mGy/MBq
Estimated Absorbed Dose of Organ, Thyroid [1]: 5.90E-03 mGy/MBq
Estimated Absorbed Dose of Organ, ULI Wall [1]: 1.78E-02 mGy/MBq
Estimated Absorbed Dose of Organ, Urinary Bladder Wall [1]: 9.66E-01 † mGy/MBq
Estimated Absorbed Dose of Organ, Uterus [1]: 6.04E-02 mGy/MBq
Estimated Absorbed Dose, Total Body [1]: 1.33E-02 mGy/MBq
Effective Dose [2]: 2.17E-02 mSv/MBq
Estimated Absorbed Dose of Organ, Adrenals [2]: 6.76E-03 mGy/MBq
Estimated Absorbed Dose of Organ, Brain [2]: 2.27E-03 mGy/MBq
Estimated Absorbed Dose of Organ, Breasts [2]: 4.34E-03 mGy/MBq
Estimated Absorbed Dose of Organ, Gallbladder Wall [2]: 7.11E-03 mGy/MBq
Estimated Absorbed Dose of Organ, Heart Wall [2]: 1.28E-02 mGy/MBq
Estimated Absorbed Dose of Organ, Kidneys [2]: 2.74E-02 ‡ mGy/MBq
Estimated Absorbed Dose of Organ, LLI Wall [2]: 5.51E-02 § mGy/MBq
Estimated Absorbed Dose of Organ, Liver [2]: 7.32E-03 mGy/MBq
Estimated Absorbed Dose of Organ, Lungs [2]: 6.59E-03 mGy/MBq
Estimated Absorbed Dose of Organ, Muscle [2]: 6.45E-03 mGy/MBq
Estimated Absorbed Dose of Organ, Osteogenic Cells [2]: 8.36E-03 mGy/MBq
Estimated Absorbed Dose of Organ, Pancreas [2]: 6.93E-03 mGy/MBq
Estimated Absorbed Dose of Organ, Red Marrow [2]: 6.11E-03 mGy/MBq
Estimated Absorbed Dose of Organ, Skin [2]: 4.44E-03 mGy/MBq
Estimated Absorbed Dose of Organ, Small Intestine [2]: 9.30E-03 mGy/MBq
Estimated Absorbed Dose of Organ, Spleen [2]: 6.39E-03 mGy/MBq
Estimated Absorbed Dose of Organ, Stomach Wall [2]: 6.44E-03 mGy/MBq
Estimated Absorbed Dose of Organ, Testes [2]: 8.41E-03 mGy/MBq
Estimated Absorbed Dose of Organ, Thymus [2]: 5.44E-03 mGy/MBq
Estimated Absorbed Dose of Organ, Thyroid [2]: 5.10E-03 mGy/MBq
Estimated Absorbed Dose of Organ, ULI Wall [2]: 8.07E-03 mGy/MBq
Estimated Absorbed Dose of Organ, Urinary Bladder Wall [2]: 1.75E-01 † mGy/MBq
Estimated Absorbed Dose, Total Body [2]: 6.69E-03 mGy/MBq
Effective Dose [3]: 8.33E-03 mSv/MBq
Estimated Absorbed Dose of Organ, Brain [3]: 8.66E-03 mGy/MBq
Estimated Absorbed Dose of Organ, Breasts [3]: 2.91E-03 mGy/MBq
Estimated Absorbed Dose of Organ, Gallbladder Wall [3]: 5.51E-03 mGy/MBq
Estimated Absorbed Dose of Organ, Heart Wall [3]: 1.03E-02 mGy/MBq
Estimated Absorbed Dose of Organ, Kidneys [3]: 1.53E-02 mGy/MBq
Estimated Absorbed Dose of Organ, LLI Wall [3]: 8.45E-03 mGy/MBq
Estimated Absorbed Dose of Organ, Liver [3]: 3.23E-02 § mGy/MBq
Estimated Absorbed Dose of Organ, Lungs [3]: 9.20E-03 mGy/MBq
Estimated Absorbed Dose of Organ, Muscle [3]: 8.21E-03 mGy/MBq
Estimated Absorbed Dose of Organ, Osteogenic Cells [3]: 7.60E-03 mGy/MBq
Estimated Absorbed Dose of Organ, Ovaries [3]: 7.96E-03 mGy/MBq
Estimated Absorbed Dose of Organ, Pancreas [3]: 1.68E-02 mGy/MBq
Estimated Absorbed Dose of Organ, Red Marrow [3]: 8.65E-03 mGy/MBq
Estimated Absorbed Dose of Organ, Skin [3]: 1.09E-02 mGy/MBq
Estimated Absorbed Dose of Organ, Small Intestine [3]: 6.42E-02 ‡ mGy/MBq
Estimated Absorbed Dose of Organ, Spleen [3]: 5.48E-03 mGy/MBq
Estimated Absorbed Dose of Organ, Stomach Wall [3]: 1.13E-02 mGy/MBq
Estimated Absorbed Dose of Organ, Thymus [3]: 8.11E-03 mGy/MBq
Estimated Absorbed Dose of Organ, Thyroid [3]: 6.90E-03 mGy/MBq
Estimated Absorbed Dose of Organ, ULI Wall [3]: 8.02E-03 mGy/MBq
Estimated Absorbed Dose of Organ, Urinary Bladder Wall [3]: 5.97E-03 mGy/MBq
Estimated Absorbed Dose of Organ, Uterus [3]: 2.38E-01 † mGy/MBq
Estimated Absorbed Dose, Total Body [3]: 2.06E-02 mGy/MBq
organs predicted to receive the highest absorbed doses (ranking) [4]: urinary bladder > LLI wall > kidneys
Substance: NOTA-RGDfK [existing Al^18F-labelled NOTA-RGDfK peptide PET radiotracer; precursor NOTA-RGDfK (1)]
